Results reported in ChEMBL document CHEMBL1201862, “PubChem BioAssay data set” (2004).
Activity calls are given as the source filed them.

Tests used:
[1] = target: T1, RNA-binding protein pos-1 (Caenorhabditis elegans, UniProt G5EF15); assay: disruptors of C. elegans POS-1 RNA interaction – biochemical, fluorescence polarization, dose response (AID 1964);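 note: purified POS-1 fused to maltose binding protein made in E. coli; potency of compounds blocking POS-1 binding to fluorescent RNA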
T1 sequence (G5EF15 whole entry): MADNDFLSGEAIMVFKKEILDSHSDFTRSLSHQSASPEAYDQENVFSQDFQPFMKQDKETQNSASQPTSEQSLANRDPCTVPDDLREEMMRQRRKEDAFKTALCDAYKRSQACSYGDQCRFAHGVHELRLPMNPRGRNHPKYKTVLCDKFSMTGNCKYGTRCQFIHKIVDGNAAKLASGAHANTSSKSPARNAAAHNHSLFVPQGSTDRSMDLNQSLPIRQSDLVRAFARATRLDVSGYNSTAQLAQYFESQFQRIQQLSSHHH

[2] = target: T2, Heat shock factor protein 1 (Mus musculus, UniProt P38532); assay: decrease of HSF1-responsive luciferase luminescence – cell-based, NIH3T3, dose retest, confirmation (AID 2382); type: functional;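 note: NIH3T3 fibroblasts with HSF1-driven luciferase reporter stressed by proteasome inhibitor MG132; luminescence from HSF1-driven luciferase expression after 8 hours of MG132 stress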
T2 sequence (P38532 whole entry): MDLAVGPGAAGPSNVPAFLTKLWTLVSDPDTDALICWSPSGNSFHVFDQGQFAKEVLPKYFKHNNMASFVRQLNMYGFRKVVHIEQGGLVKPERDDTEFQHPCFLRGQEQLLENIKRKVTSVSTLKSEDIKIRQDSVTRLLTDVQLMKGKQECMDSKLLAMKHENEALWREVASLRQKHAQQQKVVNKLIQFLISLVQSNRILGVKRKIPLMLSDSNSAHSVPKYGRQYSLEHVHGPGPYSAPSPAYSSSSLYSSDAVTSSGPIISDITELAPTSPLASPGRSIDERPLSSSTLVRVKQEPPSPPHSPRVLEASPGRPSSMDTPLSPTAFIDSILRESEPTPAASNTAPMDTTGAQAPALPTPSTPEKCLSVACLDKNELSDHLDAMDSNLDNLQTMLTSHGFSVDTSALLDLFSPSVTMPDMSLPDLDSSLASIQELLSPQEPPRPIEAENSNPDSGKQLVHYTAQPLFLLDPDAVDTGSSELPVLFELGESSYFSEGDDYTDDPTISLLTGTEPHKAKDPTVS

[3] = target: T3, Zinc finger protein mex-5 (Caenorhabditis elegans, UniProt Q9XUB2); assay: potency of MEX-5 RNA-binding blockers – biochemical, C. elegans, fluorescence polarization, dose response (AID 1960)
T3 sequence (Q9XUB2 whole entry): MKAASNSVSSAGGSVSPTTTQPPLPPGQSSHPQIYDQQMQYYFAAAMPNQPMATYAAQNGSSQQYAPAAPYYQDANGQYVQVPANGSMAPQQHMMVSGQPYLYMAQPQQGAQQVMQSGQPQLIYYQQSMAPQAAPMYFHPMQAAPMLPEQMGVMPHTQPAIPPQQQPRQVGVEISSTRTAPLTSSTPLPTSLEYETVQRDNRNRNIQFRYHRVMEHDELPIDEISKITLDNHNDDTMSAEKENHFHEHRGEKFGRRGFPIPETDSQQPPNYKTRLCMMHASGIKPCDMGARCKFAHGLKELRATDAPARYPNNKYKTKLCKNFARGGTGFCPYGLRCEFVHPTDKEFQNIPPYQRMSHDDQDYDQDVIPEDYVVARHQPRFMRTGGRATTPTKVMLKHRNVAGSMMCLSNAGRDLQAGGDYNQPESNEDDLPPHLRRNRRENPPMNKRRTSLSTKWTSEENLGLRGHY

[4] = target: Cytochrome P450 3A4 (Homo sapiens, UniProt P08684);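 note: CYP3A4 tested as one member of a cytochrome P450 panel screen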
Cytochrome P450 3A4, sequence (P08684 whole entry): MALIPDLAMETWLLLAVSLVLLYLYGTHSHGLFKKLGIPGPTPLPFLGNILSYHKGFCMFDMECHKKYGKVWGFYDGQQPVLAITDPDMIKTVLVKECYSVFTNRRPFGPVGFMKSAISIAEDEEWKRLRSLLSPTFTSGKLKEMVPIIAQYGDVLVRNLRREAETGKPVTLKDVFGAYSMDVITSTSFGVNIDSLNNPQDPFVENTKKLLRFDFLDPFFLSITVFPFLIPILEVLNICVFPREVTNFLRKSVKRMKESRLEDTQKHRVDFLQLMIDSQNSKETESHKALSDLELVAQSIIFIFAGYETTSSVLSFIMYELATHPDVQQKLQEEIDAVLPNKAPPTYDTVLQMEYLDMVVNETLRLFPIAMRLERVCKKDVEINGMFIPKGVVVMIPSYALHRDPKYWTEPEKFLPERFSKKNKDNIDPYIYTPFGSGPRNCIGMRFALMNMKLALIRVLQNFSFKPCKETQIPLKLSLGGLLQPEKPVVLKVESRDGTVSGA

[5] = target: T4, Cytochrome P450 1A2 (Homo sapiens, UniProt P05177);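 note: PubChem cytochrome P450 panel assay, CYP1A2 panel member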
T4 sequence (P05177 whole entry): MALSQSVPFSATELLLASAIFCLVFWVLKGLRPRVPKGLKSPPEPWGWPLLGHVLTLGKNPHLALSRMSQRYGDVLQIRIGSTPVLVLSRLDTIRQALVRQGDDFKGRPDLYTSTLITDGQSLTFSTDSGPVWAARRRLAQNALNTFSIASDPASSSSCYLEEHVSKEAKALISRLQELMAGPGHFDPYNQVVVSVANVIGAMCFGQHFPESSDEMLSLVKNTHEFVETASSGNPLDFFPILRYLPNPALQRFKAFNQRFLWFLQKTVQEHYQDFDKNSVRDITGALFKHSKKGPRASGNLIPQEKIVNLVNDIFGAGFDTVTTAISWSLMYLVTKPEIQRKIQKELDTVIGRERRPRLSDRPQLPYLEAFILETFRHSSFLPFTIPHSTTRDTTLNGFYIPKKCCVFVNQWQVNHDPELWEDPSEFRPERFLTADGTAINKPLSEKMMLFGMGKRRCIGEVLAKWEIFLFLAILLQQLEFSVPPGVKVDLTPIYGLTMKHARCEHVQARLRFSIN

[6] = target: Cytochrome P450 2C9 (Homo sapiens, UniProt P11712)
Cytochrome P450 2C9, sequence (P11712 whole entry): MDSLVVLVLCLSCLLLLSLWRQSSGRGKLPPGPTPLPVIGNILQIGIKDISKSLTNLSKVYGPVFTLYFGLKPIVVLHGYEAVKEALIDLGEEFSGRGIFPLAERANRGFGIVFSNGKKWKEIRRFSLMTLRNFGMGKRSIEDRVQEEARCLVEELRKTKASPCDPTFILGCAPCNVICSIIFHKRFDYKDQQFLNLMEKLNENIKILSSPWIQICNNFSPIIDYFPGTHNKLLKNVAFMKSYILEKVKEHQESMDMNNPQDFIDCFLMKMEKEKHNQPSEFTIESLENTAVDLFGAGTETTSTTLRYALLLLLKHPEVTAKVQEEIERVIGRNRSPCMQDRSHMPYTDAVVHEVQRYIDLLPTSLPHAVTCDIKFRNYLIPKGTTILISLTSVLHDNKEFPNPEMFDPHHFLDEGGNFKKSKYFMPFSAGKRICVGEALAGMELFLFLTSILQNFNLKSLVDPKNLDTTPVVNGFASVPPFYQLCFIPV

[7] = system: INS1; assay: INS-1E survival protection against cytokine death – cell-based, luminescence, retest, dose response (AID 449756); type: functional; settings: Rattus norvegicus;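 note: cell death triggered by IL-1 beta plus TNF-alpha plus IFN-gamma mixture; protective hits raise ATP signal compared with cytokine alone wells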
[8] = THP-1 cell cytotoxicity, dose response, cytotoxicity control for non-replicating M. tuberculosis project (AID 489025); type: functional
[9] = cells; type: functional
[10] = target: T5, High affinity choline transporter 1 (Homo sapiens, UniProt Q9GZV3); assay: human choline transporter blockers, potency – cell-based, 5-point CRC, membrane potential dye, dose response (AID 504840); type: functional
T5 sequence (Q9GZV3 whole entry): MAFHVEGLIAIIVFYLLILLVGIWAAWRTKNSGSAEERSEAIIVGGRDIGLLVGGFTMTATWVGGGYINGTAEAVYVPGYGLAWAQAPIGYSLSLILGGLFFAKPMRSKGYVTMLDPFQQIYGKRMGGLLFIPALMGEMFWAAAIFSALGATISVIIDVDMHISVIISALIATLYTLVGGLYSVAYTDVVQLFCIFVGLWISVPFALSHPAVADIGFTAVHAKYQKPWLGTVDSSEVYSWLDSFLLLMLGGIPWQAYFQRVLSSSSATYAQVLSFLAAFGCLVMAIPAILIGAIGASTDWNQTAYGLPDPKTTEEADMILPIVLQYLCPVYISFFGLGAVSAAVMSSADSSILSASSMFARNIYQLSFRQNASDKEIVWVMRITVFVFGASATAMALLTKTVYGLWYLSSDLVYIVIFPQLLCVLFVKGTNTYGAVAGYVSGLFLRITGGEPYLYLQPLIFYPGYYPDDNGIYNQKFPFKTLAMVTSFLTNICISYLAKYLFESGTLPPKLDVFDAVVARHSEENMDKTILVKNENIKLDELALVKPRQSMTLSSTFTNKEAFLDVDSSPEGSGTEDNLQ

[11] = target: Cytochrome P450 2C19 (Homo sapiens, UniProt P33261); assay: Cytochrome panel assay with activity outcomes. Panel member name: p450-cyp2c19 Compounds with AC50 equal or less than 10 uM are considered active; type: functional
Cytochrome P450 2C19, sequence (P33261 whole entry): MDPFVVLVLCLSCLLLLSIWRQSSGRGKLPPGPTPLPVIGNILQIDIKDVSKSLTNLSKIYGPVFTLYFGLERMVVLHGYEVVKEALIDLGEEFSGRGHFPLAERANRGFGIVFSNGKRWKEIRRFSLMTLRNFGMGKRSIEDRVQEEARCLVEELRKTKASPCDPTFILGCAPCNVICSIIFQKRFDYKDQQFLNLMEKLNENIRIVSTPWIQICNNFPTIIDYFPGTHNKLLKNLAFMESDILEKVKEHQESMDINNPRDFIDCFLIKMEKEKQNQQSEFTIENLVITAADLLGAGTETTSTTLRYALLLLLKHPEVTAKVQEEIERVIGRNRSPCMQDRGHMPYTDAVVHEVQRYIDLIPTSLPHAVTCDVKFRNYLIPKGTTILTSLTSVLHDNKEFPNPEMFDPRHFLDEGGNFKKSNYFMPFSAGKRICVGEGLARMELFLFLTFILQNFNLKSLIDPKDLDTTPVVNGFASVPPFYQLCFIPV

[12] = target: Cytochrome P450 2D6 (Homo sapiens, UniProt P10635);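 note: CYP2D6 member of a cytochrome P450 panel assay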
Cytochrome P450 2D6, sequence (P10635 whole entry): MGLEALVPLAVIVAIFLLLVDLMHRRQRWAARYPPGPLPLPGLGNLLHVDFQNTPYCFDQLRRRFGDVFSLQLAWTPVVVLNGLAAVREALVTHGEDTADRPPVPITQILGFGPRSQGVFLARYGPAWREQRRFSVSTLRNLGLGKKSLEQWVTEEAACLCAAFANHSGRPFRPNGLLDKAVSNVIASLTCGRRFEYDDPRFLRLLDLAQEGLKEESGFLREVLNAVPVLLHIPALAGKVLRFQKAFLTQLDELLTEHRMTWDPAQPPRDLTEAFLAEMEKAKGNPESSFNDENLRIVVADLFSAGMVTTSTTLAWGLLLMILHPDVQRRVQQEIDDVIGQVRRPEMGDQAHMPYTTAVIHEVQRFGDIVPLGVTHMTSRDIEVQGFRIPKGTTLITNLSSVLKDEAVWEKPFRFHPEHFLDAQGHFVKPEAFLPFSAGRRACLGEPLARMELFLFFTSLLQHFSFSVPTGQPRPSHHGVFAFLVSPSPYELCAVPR

[13] = target: Nonstructural protein 1 (Influenza A virus, UniProt Q194T2); type: functional, Influenza A virus (A/California/07/2009(H1N1))
Nonstructural protein 1, sequence (Q194T2 whole entry): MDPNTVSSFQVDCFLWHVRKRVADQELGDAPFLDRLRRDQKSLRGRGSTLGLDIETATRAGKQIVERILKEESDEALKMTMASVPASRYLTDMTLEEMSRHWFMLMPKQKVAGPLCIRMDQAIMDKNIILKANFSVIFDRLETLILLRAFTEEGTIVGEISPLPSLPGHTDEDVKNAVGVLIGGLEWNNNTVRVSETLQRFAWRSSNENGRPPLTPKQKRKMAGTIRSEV

[14] = target: Delta-type opioid receptor (Homo sapiens, UniProt P41143); assay: Counterscreen for agonists of heterodimerization of the mu 1 (OPRM1) and delta 1 (OPRD1) opioid receptors: Luminescence-based cell-based high throughput dose response assay to identify agonists of OPRD1 homodimerization. [Related pubchem assays (depositor defined):AID504326, AID504355, AID504692, AID504904, AID504905]; type: functional
Delta-type opioid receptor, sequence (P41143 whole entry): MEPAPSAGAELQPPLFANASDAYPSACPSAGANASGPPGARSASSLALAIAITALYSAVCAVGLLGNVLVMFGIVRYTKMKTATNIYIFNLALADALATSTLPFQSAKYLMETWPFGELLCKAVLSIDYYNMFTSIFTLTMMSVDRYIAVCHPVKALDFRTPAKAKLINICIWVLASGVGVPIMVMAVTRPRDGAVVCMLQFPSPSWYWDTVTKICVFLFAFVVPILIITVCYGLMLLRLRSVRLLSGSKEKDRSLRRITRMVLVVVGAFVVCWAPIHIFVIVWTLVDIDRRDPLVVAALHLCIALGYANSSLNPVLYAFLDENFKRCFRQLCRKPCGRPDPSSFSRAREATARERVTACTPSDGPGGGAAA

[15] = target: Mu-type opioid receptor (Homo sapiens, UniProt P35372); assay: Counterscreen for agonists of heterodimerization of the mu 1 (OPRM1) and delta 1 (OPRD1) opioid receptors: Luminescence-based cell-based high throughput dose response assay to identify agonists of OPRM1 homodimerization.; type: functional;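 note: U2OS cells expressing OPRM1 and beta-arrestin as split beta-galactosidase partners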
Mu-type opioid receptor, sequence (P35372 whole entry): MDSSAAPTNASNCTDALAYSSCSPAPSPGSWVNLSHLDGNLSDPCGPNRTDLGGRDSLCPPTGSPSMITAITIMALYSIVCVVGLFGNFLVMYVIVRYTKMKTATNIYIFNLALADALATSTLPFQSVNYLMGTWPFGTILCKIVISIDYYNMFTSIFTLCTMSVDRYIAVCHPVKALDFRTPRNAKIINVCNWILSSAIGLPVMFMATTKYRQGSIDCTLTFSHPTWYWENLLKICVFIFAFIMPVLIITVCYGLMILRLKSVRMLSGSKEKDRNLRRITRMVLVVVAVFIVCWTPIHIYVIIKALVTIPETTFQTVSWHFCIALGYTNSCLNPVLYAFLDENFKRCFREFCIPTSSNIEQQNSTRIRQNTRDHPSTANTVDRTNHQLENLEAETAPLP

[16] = target: 5-hydroxytryptamine receptor 5A (Homo sapiens, UniProt P47898); assay: Counterscreen for agonists of OPRM1-OPRD1 heterodimerization: luminescence-based cell-based high throughput dose response assay to identify agonists of 5-hydroxytryptamine (serotonin) 5A receptor (HTR5A). [Related pubchem assays (depositor defined):AID504326, AID504355, AID504692, AID504904, AID504905]; type: functional
5-hydroxytryptamine receptor 5A, sequence (P47898 whole entry): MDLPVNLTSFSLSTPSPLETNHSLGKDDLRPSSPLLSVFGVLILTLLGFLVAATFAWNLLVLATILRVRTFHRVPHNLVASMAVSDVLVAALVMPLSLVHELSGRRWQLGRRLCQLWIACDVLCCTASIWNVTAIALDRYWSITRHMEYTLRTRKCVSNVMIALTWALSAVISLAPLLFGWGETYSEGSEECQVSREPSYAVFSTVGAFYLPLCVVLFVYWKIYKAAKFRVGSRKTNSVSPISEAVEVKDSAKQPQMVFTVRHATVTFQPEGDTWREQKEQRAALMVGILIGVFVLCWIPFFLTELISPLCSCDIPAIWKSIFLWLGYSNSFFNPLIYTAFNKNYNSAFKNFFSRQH

With `CC1(C)CC(=O)C2=C(C1)OC(N)=C(C#N)C2c1ccccc1` (stereo not given) the EC50 [1] was > 300 µM (not active), the EC50 [2] was > 195 µM (not active) and the EC50 [3] was > 300 µM (not active).

In the case of `COc1c2ccoc2nc2c(OC)c(OC[C@H](O)C(C)(C)O)ccc12`, the AC50 [4] is reported as 15.8 µM (inconclusive), the AC50 [5] is reported as 10 µM (inconclusive) and the AC50 [6] is reported as “inconclusive”.

In the case of `Cc1[nH]c2ccccc2c1-c1cc(-c2cc(-c3c(C)[nH]c4ccccc34)on2)no1`, the AC50 [6] is reported as “inconclusive”.

In the case of `CCOc1cc(-c2sc(Nc3cc(C)ccc3OC)n[n+]2-c2ccccc2)ccc1OC`, the AC50 [7] is reported as 12.9 µM (active), the CC50 [8] is reported as > 40 µM (active) and the IC50 [9] is reported as > 50 µM (active).

For `Cc1cc(Cl)ccc1OC(C)C(=O)Nc1ccc(S(=O)(=O)Nc2cnc3ccccc3n2)cc1` (stereo not given), the IC50 [10] was 13.8 µM (active), the AC50 ([11]; read-out: AC50) was 14.1 µM (inconclusive) and the AC50 [12] was 28.2 µM (inconclusive).

For `O=C(NC(=S)NNC(=O)c1ccccc1O)c1cccc([N+](=O)[O-])c1`, the IC50 [13] was 15.3 µM (active).

For `CCOC(=O)c1c(C)c(C(=O)N2CCc3ccccc3C2)c(C)n1CC`, the IC50 [10] was 13.8 µM (active).

With `COc1ccc(Cc2nnc(NN)nc2O)cc1OC` the IC50 [13] was 15.5 µM (active).

For `CN(C)S(=O)(=O)Oc1ccccc1C(=O)Nc1cccc(C(F)(F)F)c1`, the AC50 [6] was “inconclusive”.

For `CC(=O)N1c2ccc(S(=O)(=O)NCCC(=O)NC3CCCC(C)C3C)cc2CC1C` (stereo not given), the IC50 [10] was 13.2 µM (active).

With `CCOC(=O)C1(CC2CCCCO2)CCN(Cc2nc(-c3cccs3)oc2C)CC1` (stereo not given) the EC50 [14] was > 92.5 µM (inactive), the EC50 [15] was > 92.5 µM (inactive) and the EC50 [16] was > 92.5 µM (inactive).

In the case of `CCc1ccc(NC(=O)Nc2ccc3c(c2)N(C)C(=O)CS3)cc1`, the EC50 [14] is reported as 35.7 µM (inactive), the EC50 [15] is reported as 36.7 µM (inactive) and the EC50 [16] is reported as > 92.5 µM (inactive).

For `Cc1ccc(CC(=O)NCC(c2ccco2)N(C)C)cc1C` (stereo not given), the EC50 [14] was > 92.4 µM (inactive), the EC50 [15] was > 92.4 µM (inactive) and the EC50 [16] was > 92.4 µM (inactive).

With `O=C(N[C@H]1C/C=C\C[C@H](CC(=O)N(CCO)Cc2ccccc2)C(=O)N[C@H](Cc2c[nH]c3ccccc23)COC1=O)OCC1c2ccccc2-c2ccccc21` the EC50 [14] was > 92.5 µM (inactive), the EC50 [15] was > 92.5 µM (inactive) and the EC50 [16] was > 92.5 µM (inactive).

In the case of `COCCNC(=O)C1CC(c2cccc(OC)c2)=NO1` (stereo not given), the AC50 [6] is reported as “inconclusive”.

With `CCCN(C(=O)c1cn(CC)c2nc(C)ccc2c1=O)c1c(N)n(Cc2ccccc2)c(=O)[nH]c1=O` the IC50 [10] was 12.6 µM (active).

With `CC(=O)N/N=C/c1cc([N+](=O)[O-])ccc1OCCOc1ccccc1` the AC50 [11] was “inconclusive” and the AC50 [6] was “inconclusive”.

With `CN1CCN(CCC(=O)N/N=C/c2cc([N+](=O)[O-])ccc2O)CC1` the IC50 [13] was 17.3 µM (active).
